How the values were obtained:
A2780 ovarian cells [1] = assay: A2780 ovarian cell proliferation assay in lipid reduced medium, with palmitate (MTT); assay type: cell-based; conditions: Homo sapiens, A2780, 96 h; read-out: pIC50 A2780 Ovarian Cell, With Palmitate (converted)
Method in brief: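 Seeded cells were switched next day to lipid-reduced serum, exposed to compound and 25 μM palmitate complexed with fatty-acid-free BSA, and incubated 96 h. Proliferation was then determined by MTT absorbance at 544 nm, with a best-fit curve of signal against concentration.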

A2780 ovarian cells [2] = assay: A2780 ovarian cell proliferation assay in lipid reduced medium, without palmitate (MTT); assay type: cell-based; conditions: Homo sapiens, A2780, 96 h; read-out: pIC50 A2780 Ovarian Cell, Without Palmitate (converted)
[3] = target: T1, hFASN enzyme (full length) (Homo sapiens, UniProt P49327); assay: Fatty Acid Synthase (FASN) inhibition scintillation proximity assay; assay type: biochemical; conditions: for inhibition at 10 µM: read-out: Human FASN % inhibition @ 10 μM, 10 μM test compound; for IC50: read-out: Human FASN pIC50 (converted)
T1 construct: 10 μL hFASN enzyme (full length, 300 ng, purified in house); made in house
T1 sequence (P49327 whole entry): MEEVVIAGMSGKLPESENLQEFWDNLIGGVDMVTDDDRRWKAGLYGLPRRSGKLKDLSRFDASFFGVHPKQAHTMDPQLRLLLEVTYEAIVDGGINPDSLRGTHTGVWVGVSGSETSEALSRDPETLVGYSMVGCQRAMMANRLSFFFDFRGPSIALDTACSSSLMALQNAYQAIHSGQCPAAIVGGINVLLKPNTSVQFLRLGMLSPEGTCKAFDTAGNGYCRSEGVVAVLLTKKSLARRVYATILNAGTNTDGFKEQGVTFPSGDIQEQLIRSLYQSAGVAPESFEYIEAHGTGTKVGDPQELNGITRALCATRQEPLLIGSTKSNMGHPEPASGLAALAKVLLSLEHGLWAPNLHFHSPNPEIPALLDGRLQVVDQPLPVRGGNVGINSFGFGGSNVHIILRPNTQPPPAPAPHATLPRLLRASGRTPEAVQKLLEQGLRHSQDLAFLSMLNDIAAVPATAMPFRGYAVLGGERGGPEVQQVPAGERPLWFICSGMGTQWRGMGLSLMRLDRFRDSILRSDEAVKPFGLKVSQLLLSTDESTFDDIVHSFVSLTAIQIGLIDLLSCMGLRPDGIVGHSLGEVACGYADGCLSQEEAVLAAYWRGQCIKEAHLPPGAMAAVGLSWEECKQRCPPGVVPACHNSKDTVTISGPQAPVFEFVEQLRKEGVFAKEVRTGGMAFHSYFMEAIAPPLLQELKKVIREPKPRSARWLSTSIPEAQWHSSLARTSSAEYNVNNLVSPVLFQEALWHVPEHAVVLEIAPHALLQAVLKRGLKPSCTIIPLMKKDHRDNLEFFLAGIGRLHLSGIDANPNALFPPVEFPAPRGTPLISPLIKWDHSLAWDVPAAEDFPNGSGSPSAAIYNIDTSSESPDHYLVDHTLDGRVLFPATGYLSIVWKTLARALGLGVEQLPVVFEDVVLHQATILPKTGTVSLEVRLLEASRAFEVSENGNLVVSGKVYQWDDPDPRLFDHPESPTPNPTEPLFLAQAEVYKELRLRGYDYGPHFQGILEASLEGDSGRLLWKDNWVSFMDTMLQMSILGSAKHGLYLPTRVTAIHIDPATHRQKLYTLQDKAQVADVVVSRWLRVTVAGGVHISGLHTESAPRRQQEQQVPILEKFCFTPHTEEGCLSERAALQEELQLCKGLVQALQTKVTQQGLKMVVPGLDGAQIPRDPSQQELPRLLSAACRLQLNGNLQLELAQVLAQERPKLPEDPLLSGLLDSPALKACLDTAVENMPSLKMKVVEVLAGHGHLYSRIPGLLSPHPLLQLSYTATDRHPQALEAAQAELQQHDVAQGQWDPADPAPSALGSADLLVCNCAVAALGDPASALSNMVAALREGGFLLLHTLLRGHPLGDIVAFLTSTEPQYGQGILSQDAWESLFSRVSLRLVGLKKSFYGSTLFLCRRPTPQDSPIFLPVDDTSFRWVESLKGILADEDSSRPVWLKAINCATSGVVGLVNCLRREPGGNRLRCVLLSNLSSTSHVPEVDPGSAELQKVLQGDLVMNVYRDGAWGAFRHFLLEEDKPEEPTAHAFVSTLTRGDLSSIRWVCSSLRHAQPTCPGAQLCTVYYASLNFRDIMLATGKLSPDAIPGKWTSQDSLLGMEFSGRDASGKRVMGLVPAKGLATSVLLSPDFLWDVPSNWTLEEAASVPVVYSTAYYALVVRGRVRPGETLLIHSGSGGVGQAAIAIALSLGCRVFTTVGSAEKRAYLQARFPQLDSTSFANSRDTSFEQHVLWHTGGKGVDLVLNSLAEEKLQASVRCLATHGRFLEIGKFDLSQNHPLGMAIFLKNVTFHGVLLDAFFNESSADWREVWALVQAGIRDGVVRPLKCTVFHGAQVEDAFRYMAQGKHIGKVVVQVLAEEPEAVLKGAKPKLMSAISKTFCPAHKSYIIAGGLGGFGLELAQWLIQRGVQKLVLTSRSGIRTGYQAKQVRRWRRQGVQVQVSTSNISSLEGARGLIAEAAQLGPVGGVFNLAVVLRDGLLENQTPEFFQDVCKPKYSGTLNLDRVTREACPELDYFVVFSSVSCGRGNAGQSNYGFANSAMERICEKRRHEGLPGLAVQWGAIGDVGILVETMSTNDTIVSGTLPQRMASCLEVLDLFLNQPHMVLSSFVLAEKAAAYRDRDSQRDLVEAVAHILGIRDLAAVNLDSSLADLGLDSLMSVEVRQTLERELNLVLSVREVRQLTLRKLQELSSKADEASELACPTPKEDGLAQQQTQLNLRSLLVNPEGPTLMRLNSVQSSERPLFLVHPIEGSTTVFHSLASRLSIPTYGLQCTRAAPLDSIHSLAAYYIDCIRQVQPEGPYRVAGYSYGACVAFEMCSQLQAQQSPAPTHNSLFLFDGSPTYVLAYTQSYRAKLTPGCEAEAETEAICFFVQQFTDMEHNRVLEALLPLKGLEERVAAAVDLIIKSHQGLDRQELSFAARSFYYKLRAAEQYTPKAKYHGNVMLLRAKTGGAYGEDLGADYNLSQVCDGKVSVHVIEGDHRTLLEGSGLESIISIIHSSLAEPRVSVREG
Method in brief: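 Purified full-length hFASN (300 ng) converts ^3H-acetyl-CoA plus malonyl-CoA to ^3H-palmitate in 100 mM KH2PO4 pH 7.5, 1 mM DTT; compounds tested at 0.01–30 μM. Product captured on streptavidin imaging beads and read by LEADseeker at 610 nm after ≥24 h; 4-parameter logistic fit versus controls.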

SMILES: Cn1ncc2nc(-c3ccc(C4=NC5(CC5)C(=O)N4CC4CN(C(=O)C5CC5)C4)cc3)ccc21 [compound 792, 6-((1-(cyclopropanecarbonyl)azetidin-3-yl)methyl)-5-(4-(1-methyl-1H-pyrazolo[4,3-b]pyridin-5-yl)phenyl)-4,6-diazaspiro[2.4]hept-4-en-7-one]
- IC50 (A2780 ovarian cells [1]): > 10 µM
- IC50 (A2780 ovarian cells [2]): > 10 µM
- inhibition at 10 µM [3]: 38%
- IC50 [3]: > 10 µM

SMILES: CN(C)c1ccc(-c2ccc(C3=NC4(CC4)C(=O)N3C[C@@H]3CCN(C(=O)C4CC4)C3)cc2)cc1 [compound 124, 6-{[(3R)-1-(Cyclopropylcarbonyl)pyrrolidin-3-yl]methyl}-5-[4′-(dimethylamino)biphenyl-4-yl]-4,6-diazaspiro[2.4]hept-4-en-7-one]
- IC50 (A2780 ovarian cells [1]): > 10 µM
- IC50 (A2780 ovarian cells [2]): ~0.288 µM
- inhibition at 10 µM [3]: 113%

SMILES: Cc1cc(Cl)c2ccc(-c3ccc(C4=NC5(CC5)C(=O)N4CC4CN(C(=O)C5(C)CC5)C4)c(C)c3)cc2n1 [compound 597, 5-[4-(4-Chloro-2-methylquinolin-7-yl)-2-methylphenyl]-6-({1-[(1-methylcyclopropyl)carbonyl]azetidin-3-yl}methyl)-4,6-diazaspiro[2.4]hept-4-en-7-one]
- IC50 (A2780 ovarian cells [1]): 4.37 µM
- IC50 (A2780 ovarian cells [2]): 3.63 µM
- inhibition at 10 µM [3]: 65%
- IC50 [3]: ~4.27 µM

SMILES: O=C(C1CC1)N1CC(CN2C(=O)C3(CC3)N=C2c2ccc(-c3cnc4c(F)cccc4c3)cc2)C1 [compound 560, 6-{[1-(Cyclopropylcarbonyl)azetidin-3-yl]methyl}-5-[4-(8-fluoroquinolin-3-yl)phenyl]-4,6-diazaspiro[2.4]hept-4-en-7-one]
- IC50 (A2780 ovarian cells [1]): > 10 µM
- IC50 (A2780 ovarian cells [2]): ~7.59 µM
- inhibition at 10 µM [3]: 68%
- IC50 [3]: 3.72 µM

SMILES: Cn1cc(-c2ccc(-c3ccc(C4=NC5(CCOC5)C(=O)N4CC4CCN(S(C)(=O)=O)C4)cc3)cc2)cn1 (stereo not shown) [compound 939, 2-(4′-(1-methyl-1H-pyrazol-4-yl)-[1,1′-biphenyl]-4-yl)-3-((1-(methylsulfonyl)pyrrolidin-3-yl)methyl)-7-oxa-1,3-diazaspiro[4.4]non-1-en-4-one]
- IC50 (A2780 ovarian cells [1]): > 10 µM
- IC50 (A2780 ovarian cells [2]): > 10 µM
- inhibition at 10 µM [3]: 2%
- IC50 [3]: > 10 µM

SMILES: Cc1cc(C)c2ccc(-c3ccc(C4=NC5(CC5)C(=O)N4CC4CN(C(=O)C5CC5)C4)cc3)cc2n1 [compound 570, 6-{[1-(Cyclopropylcarbonyl)azetidin-3-yl]methyl}-5-[4-(2,4-dimetrhylquinolin-7-yl)phenyl]-4,6-diazaspiro[2.4]hept-4-en-7-one]
- IC50 (A2780 ovarian cells [1]): > 10 µM
- IC50 (A2780 ovarian cells [2]): ~5.25 µM
- inhibition at 10 µM [3]: 65%
- IC50 [3]: 4.17 µM

SMILES: Cc1cc2cc(-c3ccc(C4=NC5(CC5)C(=O)N4CC4CN(C(=O)C5CC5)C4)c(F)c3)ccc2n1C [compound 569, 6-{[1-(Cyclopropylcarbonyl)azetidin-3-yl]methyl}-5-[4-(1,2-dimethyl-1H-indol-5-yl)-2-fluorophenyl]-4,6-diazaspiro[2.4]hept-4-en-7-one]
- IC50 (A2780 ovarian cells [1]): 2.19 µM
- IC50 (A2780 ovarian cells [2]): 0.204 µM
- inhibition at 10 µM [3]: 86%
- IC50 [3]: 0.209 µM

SMILES: Cc1cc(-c2nc3cc(Br)ccc3cc2C)ccc1C1=NC2(CC2)C(=O)N1CC1CN(C(=O)C2(C)CC2)C1 [compound 787, 5-(4-(7-bromo-3-methylquinolin-2-yl)-2-methylphenyl)-6-((1-(1-methylcyclopropanecarbonyl)azetidin-3-yl)methyl)-4,6-diazaspiro[2.4]hept-4-en-7-one]
- IC50 (A2780 ovarian cells [1]): > 10 µM
- IC50 (A2780 ovarian cells [2]): 9.33 µM
- inhibition at 10 µM [3]: 38%
- IC50 [3]: > 10 µM

SMILES: Cn1cc(CCO)c2cc(-c3ccc(C4=NC5(CC5)C(=O)N4CC4CN(C(=O)C5CC5)C4)c(F)c3)ccc21 [compound 568, 6-{[1-(Cyclopropylcarbonyl)azetidin-3-yl]methyl}-5-{2-fluoro-4-[3-(2-hydroxyethyl)-1-methyl-1H-indol-5-yl]phenyl}-4,6-diazaspiro[2.4]hept-4-en-7-one]
- IC50 (A2780 ovarian cells [1]): 2.4 µM
- IC50 (A2780 ovarian cells [2]): 0.0468 µM
- inhibition at 10 µM [3]: 89%
- IC50 [3]: 0.129 µM

SMILES: COC(=O)N1CC[C@@H](CN2C(=O)C3(CN(C(=O)OC)C3)N=C2c2ccc(-c3ccc4cccnc4c3)cc2)C1 [compound 963, (S)-methyl 7-((1-(methoxycarbonyl)pyrrolidin-3-yl)methyl)-8-oxo-6-(4-(quinolin-7-yl)phenyl)-2,5,7-triazaspiro[3.4]oct-5-ene-2-carboxylate]
- IC50 (A2780 ovarian cells [1]): > 10 µM
- IC50 (A2780 ovarian cells [2]): > 10 µM
- inhibition at 10 µM [3]: 62%
- IC50 [3]: ~10.2 µM

SMILES: Cc1ccc2ccc(-c3ccc(C4=NC5(CC5)C(=O)N4CC4CN(C(=O)C5CC5)C4)c(F)c3)cc2n1 [compound 574, 6-{[1-(Cyclopropylcarbonyl)azetidin-3-yl]methyl}-5-[2-fluoro-4-(2-methylquinolin-7-yl)phenyl]-4,6-diazaspiro[2.4]hept-4-en-7-one]
- IC50 (A2780 ovarian cells [1]): 5.75 µM
- IC50 (A2780 ovarian cells [2]): 0.871 µM
- inhibition at 10 µM [3]: 82%
- IC50 [3]: 0.813 µM

SMILES: Cc1nnc2ccc(-c3ccc(C4=NC5(CC5)C(=O)N4CC4CN(C(=O)C5CC5)C4)cc3)cn12 [compound 793, 6-((1-(cyclopropanecarbonyl)azetidin-3-yl)methyl)-5-(4-(3-methyl-[1,2,4]triazolo[4,3-a]pyridin-6-yl)phenyl)-4,6-diazaspiro[2.4]hept-4-en-7-one]
- IC50 (A2780 ovarian cells [1]): > 10 µM
- IC50 (A2780 ovarian cells [2]): > 10 µM
- inhibition at 10 µM [3]: 13%
- IC50 [3]: > 10 µM

SMILES: O=C(C1CC1)N1CC[C@@H](CN2C(=O)C3(CCCC3)N=C2c2ccc(-c3ccc(Cl)cc3)cc2F)C1 [compound 121, 2-(4′-Chloro-3-fluorobiphenyl-4-yl)-3-{[(3R)-1-(cyclopropylcarbonyl)pyrrolidin-3-yl]methyl}-1,3-diazaspiro[4.4]non-1-en-4-one]
- IC50 (A2780 ovarian cells [1]): > 10 µM
- IC50 (A2780 ovarian cells [2]): 2.19 µM
- inhibition at 10 µM [3]: 115%
- IC50 [3]: 0.0912 µM

SMILES: O=C(N1CC(CN2C(=O)C3(CCOC3)N=C2c2ccc(-c3ccc4occc4c3)cc2)C1)C(F)(F)F (stereo not shown) [compound 897, 2-(4-(benzofuran-5-yl)phenyl)-3-((1-(2,2,2-trifluoroacetyl)azetidin-3-yl)methyl)-7-oxa-1,3-diazaspiro[4.4]non-1-en-4-one]
- IC50 (A2780 ovarian cells [1]): > 10 µM
- IC50 (A2780 ovarian cells [2]): > 10 µM
- inhibition at 10 µM [3]: 15%
- IC50 [3]: > 10 µM

SMILES: Cn1ncc2cc(-c3ccc(C4=NC5(CC5)C(=O)N4CC4CN(C(=O)C5(O)CC5)C4)c(F)c3)ccc21 [compound 572, 5-[2-Fluoro-4-(1-methyl-1H-indazol-5-yl)phenyl]-6-({1-[(1-hydroxycyclopropyl)carbonyl]azetidin-3-yl}methyl)-4,6-diazaspiro[2.4]hept-4-en-7-one]
- IC50 (A2780 ovarian cells [1]): > 10 µM
- IC50 (A2780 ovarian cells [2]): 0.0525 µM
- inhibition at 10 µM [3]: 87%
- IC50 [3]: 0.135 µM

SMILES: O=C(C1CC1)N1CC(CN2C(=O)C3(CC3)N=C2c2ccc(-c3ccc4c(cnn4C4COC4)c3)cc2)C1 [compound 788, 6-((1-(cyclopropanecarbonyl)azetidin-3-yl)methyl)-5-(4-(1-(oxetan-3-yl)-1H-indazol-5-yl)phenyl)-4,6-diazaspiro[2.4]hept-4-en-7-one]
- IC50 (A2780 ovarian cells [1]): > 10 µM
- IC50 (A2780 ovarian cells [2]): > 10 µM
- inhibition at 10 µM [3]: 14%
- IC50 [3]: > 10 µM

SMILES: Cc1nc2ccc(-c3ccc(C4=NC5(CC5)C(=O)N4CC4CN(C(=O)C5CC5)C4)c(F)c3)cc2n1C [compound 654, 6-{[1-(Cyclopropylcarbonyl)azetidin-3-yl]methyl}-5-[4-(1,2-dimethyl-1H-benzimidazol-6-yl)-2-fluorophenyl]-4,6-diazaspiro[2.4]hept-4-en-7-one]
- IC50 (A2780 ovarian cells [1]): > 10 µM
- IC50 (A2780 ovarian cells [2]): 2.19 µM
- inhibition at 10 µM [3]: 83%
- IC50 [3]: 1.15 µM

From patent US10077261B2, “Imidazolin-5-one derivative useful as FASN inhibitors for the treatment of cancer” (Janssen Pharmaceutica NV, priority 2012, dated 2018)
